Laboratory results: US20100197591A1, “4-AMINO-7,8-DIHYDROPYRIDO[4,3-d]PYRIMIDIN-5(6H)-ONE DERIVATIVES” (pfizer Inc, priority 2009, published 2010)

molecular target: T1, Human full-length diacylglycerol:acylCoA acyltransferase 1 (DGAT-1) (Homo sapiens, UniProt O75907); experiment: DGAT-1 Reduced Microsome Multidose Assay, G7329F Human IC50; type: biochemical; conditions: crude membrane fraction of Sf9 cells expressing human DGAT-1; [14C]decanoylCoA; apparent IC50, average where tested more than once
T1 construct: Human full-length diacylglycerol:acylCoA acyltransferase 1 (DGAT-1) was expressed in Sf9 insect cells; made in house; host or cells: Sf9 insect cells (baculovirus); crude membrane/microsome fraction
T1 sequence (O75907 1-488): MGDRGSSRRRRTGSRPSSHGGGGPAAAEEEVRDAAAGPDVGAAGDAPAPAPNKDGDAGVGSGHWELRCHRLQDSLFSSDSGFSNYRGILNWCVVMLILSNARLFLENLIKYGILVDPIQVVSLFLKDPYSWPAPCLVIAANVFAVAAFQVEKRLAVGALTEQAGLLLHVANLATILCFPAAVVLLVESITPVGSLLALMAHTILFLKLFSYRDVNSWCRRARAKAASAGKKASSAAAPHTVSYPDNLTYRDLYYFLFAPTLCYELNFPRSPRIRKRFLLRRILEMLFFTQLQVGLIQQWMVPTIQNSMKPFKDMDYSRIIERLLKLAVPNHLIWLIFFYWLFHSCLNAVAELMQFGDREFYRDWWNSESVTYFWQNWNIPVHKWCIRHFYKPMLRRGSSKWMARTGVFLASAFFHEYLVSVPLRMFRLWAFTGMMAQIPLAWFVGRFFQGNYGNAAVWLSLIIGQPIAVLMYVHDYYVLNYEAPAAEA
Experimental: Human full-length diacylglycerol:acylCoA acyltransferase 1 (DGAT-1) was expressed in Sf9 insect cells which are then lysed and a crude membrane fraction (105,000×g pellet) was prepared. The DGAT-1 gene is a human DGAT-1 gene described in J Biol Chem 273:26765 (1998) and U.S. Pat. No. 6,100,077.
In vitro inhibition of DGAT-1 was measured using a modification, further described below, of the assay methodology described in U.S. Pat. No. 6,994,956 B2.
The cells were cultured as follows. Sf9 cells (20 L) were infected with 4 mL of DGAT-1 Baculovirus Infected Insect Cells (BIIC) for 72 hours in a Wave Bioreactor System 20/50P (Wave Biotec/GE Healthcare).
Crude DGAT-1 microsomes were prepared as follows. Cell pellets were washed once with ice-cold Dulbecco's phosphate-buffered saline. Cells were collected in tabletop centrifuge (Beckman GS-6KR), 15 minutes, 2000×g, 4° C. Twenty (20) mL of ice-cold Microsome Buffer (MB) was added per 5 g of cell pellet. The suspension was passed through a microfluidizer 3 times (18K psi). The lysate was transferred to centrifuge tubes and centrifuged for 20 minutes at 5000×g (Beckman-Coulter, Inc. Allegra® 64R High-Speed Refrigerated Benchtop Centrifuge, F0650 rotor) at 4° C. The supernatant was transferred to ultracentrifuge tubes and centrifuged at 125,000×g for 1 hour in a Beckman Ti-45 rotor, 4° C. The supernatant fluid was discarded. The pellet was resuspended in 70 mL of MB by sonication. The microsome concentration was determined using Bio-Rad Protein DC Protein Assay. The microsomes were filter sterilized with a 0.22 μm filter. The samples were portioned, flash frozen and stored at −80° C.
The Microsome Buffer, used for microsome preparation, was prepared by conventional means and contained 125 mM sucrose, 3 mM imidazole, 0.2 μg/mL aprotinin, 0.2 μg/mL leupeptin and 5 mM dithiothreitol (Cleland's reagent), DGAT-1 activity was measured in 384-well format in a total assay volume of 25 μl that contained, Hepes buffer (50 mM, pH 7.5), MgCl2 (10 mM), bovine serum albumin (0.6 mg/ml), [^14C]decanoylCoA (20 μM, 58 Ci/mol) and membranes (25 μg/ml) into which 1,2 dioleoyl-sn-glycerol (75 μM) in acetone has already been incorporated. Inhibitors in DMSO were pre-incubated with membranes before initiating the DGAT-1 reaction by the addition of decanoylCoA. […] The DMSO concentration was 2.5%. The inhibitors were present at a range of eight concentrations to generate an apparent IC50 for each compound. The eight inhibitor concentration employed ranged from 10 μM to 3 nM (from high to low concentration). Specifically, the eight concentrations used were 10 μM, 3 μM, 1 μM, 300 nM, 100 nM, 30 nM, 10 nM and 3 nM.
Reaction mixtures were neutralized by the addition of 15 μl of tris(hydroxy-methyl)aminomethane (1M, pH 8.0) and then mixed by trituration with 37.5 μl of Microscint™-E (Perkin Elmer). Plates contents were allowed to partition for 15 to 30 min before ^14C was measured in a scintillation spectrometer (Wallac Microbeta Trilux 1450-030 liquid scintillation counter 12 detector in the top-count DPM mode). Percent inhibition of test compounds was computed as […].
Four separate assays were performed using 4 different methods of analysis. The method of analysis of Assay 1 was the same as Assay 4 (described above) except microsomes were utilized at 25 μg/mL instead of 5 μg/mL. The method of analysis of Assay 2 was the same as Assay 4 (described above) except eleven (11) concentrations of inhibitor were employed instead of eight (8). The method of analysis of Assay 3 was the same as Assay 2 except the compounds were serially diluted in a different laboratory.
Where this DGAT-1 inhibition assay was performed on a compound more than once, an average is provided for that compound.

Row | SMILES | IC50 [nM]
1 | COc1nc(N)c2c(n1)CCN(c1ccc(OC(F)(F)F)cc1)C2=O [Example 1A, 4-amino-2-methoxy-6-[4-(trifluoromethoxy)phenyl]-7,8-dihydropyrido[4,3-d]pyrimidin-5(6H)-one] | 90.4
2 | CCc1ccc(N2CCc3nc(OC)nc(N)c3C2=O)cc1 [Example 1B, 4-amino-6-(4-ethylphenyl)-2-methoxy-7,8-dihydropyrido[4,3-d]pyrimidin-5(6H)-one] | 52.7
3 | COc1nc(N)c2c(n1)CCN(c1ccc(CC3CC3)cc1)C2=O [Example 1C, 4-amino-6-[4-(cyclopropylmethyl)phenyl]-2-methoxy-7,8-dihydropyrido[4,3-d]pyrimidin-5(6H)-one] | 11
4 | COc1nc(N)c2c(n1)CCN(c1ccc3c(c1)CCC3)C2=O [Example 1D, 4-amino-6-(2,3-dihydro-1H-inden-5-yl)-2-methoxy-7,8-dihydropyrido[4,3-d]pyrimidin-5(6H)-one] | 40.4
5 | COc1nc(N)c2c(n1)CCN(c1ccc(C3CC3)cc1)C2=O [Example 1E, 4-amino-6-(4-cyclopropylphenyl)-2-methoxy-7,8-dihydropyrido[4,3-d]pyrimidin-5(6H)-one] | 28.8
6 | COc1nc(N)c2c(n1)CCN(c1ccc(C(C)C)c(F)c1)C2=O [Example 1G, 4-amino-6-(3-fluoro-4-isopropylphenyl)-2-methoxy-7,8-dihydropyrido[4,3-d]pyrimidin-5(6H)-one] | 9.66
7 | COc1nc(N)c2c(n1)CCN(c1ccc(C3CC(F)(F)C3)cc1)C2=O [Example 1H, 4-amino-6-[4-(3,3-difluorocyclobutyl)phenyl]-2-methoxy-7,8-dihydropyrido[4,3-d]pyrimidin-5(6H)-one] | 57.6
8 | COc1nc(N)c2c(n1)CCN(c1ccc([C@H]3C[C@H](O)C3)cc1)C2=O [Example 1I, 4-amino-6-[4-(trans-3-hydroxycyclobutyl)phenyl]-2-methoxy-7,8-dihydropyrido[4,3-d]pyrimidin-5(6H)-one] | 95.8
9 | COc1nc(N)c2c(n1)CCN(c1ccc([C@H]3C[C@@H](O)C3)cc1)C2=O [Example 1J, 4-amino-6-[4-(cis-3-hydroxycyclobutyl)phenyl]-2-methoxy-7,8-dihydropyrido[4,3-d]pyrimidin-5(6H)-one] | 59.8
10 | COc1nc(N)c2c(n1)CCN(c1ccc(C3(CO)CCC3)cc1)C2=O [Example 1O, 4-amino-6-{4-[1-(hydroxymethyl)cyclobutyl]phenyl}-2-methoxy-7,8-dihydropyrido[4,3-d]pyrimidin-5(6H)-one] | 35.9
11 | COc1nc(N)c2c(n1)CCN(c1ccc(C3(C(=O)O)CCC3)cc1)C2=O [Example 1P, 1-[4-(4-amino-2-methoxy-5-oxo-7,8-dihydropyrido[4,3-d]pyrimidin-6(5H)-yl)phenyl]cyclobutanecarboxylic acid] | 67.1
12 | COc1nc(N)c2c(n1)CCN(c1ccc(C(C)(C)CO)cc1)C2=O [Example 1T, 4-amino-6-[4-(2-hydroxy-1,1-dimethylethyl)phenyl]-2-methoxy-7,8-dihydropyrido[4,3-d]pyrimidin-5(6H)-one] | 52.9
13 | COc1nc(N)c2c(n1)CCN(c1ccc(C(O)(C(F)(F)F)C(F)(F)F)cc1)C2=O [Example 1X, 4-amino-2-methoxy-6-{4-[2,2,2-trifluoro-1-hydroxy-1-(trifluoromethyl)ethyl]phenyl}-7,8-dihydropyrido[4,3-d]pyrimidin-5(6H)-one] | 5.19
14 | COc1nc(N)c2c(n1)CCN(c1ccc(C(O)C(F)(F)F)cc1)C2=O (stereo not shown) [Example 1Y, 4-amino-2-methoxy-6-[4-(2,2,2-trifluoro-1-hydroxyethyl)phenyl]-7,8-dihydropyrido[4,3-d]pyrimidin-5(6H)-one] | 46
15 | COc1nc(N)c2c(n1)CCN(c1ccc(CC(C)C)cc1)C2=O [Example 1Z, 4-amino-6-(4-isobutylphenyl)-2-methoxy-7,8-dihydropyrido[4,3-d]pyrimidin-5(6H)-one] | 4.92
16 | COC(=O)c1ccc(N2CCc3nc(OC)nc(N)c3C2=O)cc1 [Example 2A, Methyl 4-(4-amino-2-methoxy-5-oxo-7,8-dihydropyrido[4,3-d]pyrimidin-6(5H)-yl)benzoate] | 50.3
17 | COc1nc(N)c2c(n1)CCN(c1ccc(C(C)(C)O)cc1)C2=O [Example 2B, 4-amino-6-[4-(1-hydroxy-1-methylethyl)phenyl]-2-methoxy-7,8-dihydropyrido[4,3-d]pyrimidin-5(6H)-one] | 177
18 | COc1nc(N)c2c(n1)CCN(c1ccc(C(C)(C)F)cc1)C2=O [Example 2C, 4-amino-6-[4-(1-fluoro-1-methylethyl)phenyl]-2-methoxy-7,8-dihydropyrido[4,3-d]pyrimidin-5(6H)-one] | 86.6
19 | COc1nc(N)c2c(n1)CCN(c1ccc(C(C)(C)OC)cc1)C2=O [Example 2D, 4-amino-2-methoxy-6-[4-(1-methoxy-1-methylethyl)phenyl]-7,8-dihydropyrido[4,3-d]pyrimidin-5(6H)-one] | 34.6
20 | COc1nc(N)c2c(n1)CCN(c1ccc(C(=O)O)cc1)C2=O [Example 2E, 4-(4-amino-2-methoxy-5-oxo-7,8-dihydropyrido[4,3-d]pyrimidin-6(5H)-yl)benzoic acid] | 1480
21 | COc1nc(N)c2c(n1)CCN(c1ccc(C(=O)OC3CCCCC3)cc1)C2=O [Example 2G, Cyclohexyl 4-(4-amino-2-methoxy-5-oxo-7,8-dihydropyrido[4,3-d]pyrimidin-6(5H)-yl)benzoate] | 74.4
22 | COc1nc(N)c2c(n1)CCN(c1ccc(C(=O)N(C)C)cc1)C2=O [Example 2H, 4-(4-amino-2-methoxy-5-oxo-7,8-dihydropyrido[4,3-d]pyrimidin-6(5H)-yl)-N,N-dimethylbenzamide] | 1370
23 | COC(=O)C(C)(C)c1ccc(N2CCc3nc(OC)nc(N)c3C2=O)cc1 [Example 3A, methyl 2-[4-(4-amino-2-methoxy-5-oxo-7,8-dihydropyrido[4,3-d]pyrimidin-6(5H)-yl)phenyl]-2-methylpropanoate] | 13.7
24 | COc1nc(N)c2c(n1)CCN(c1ccc(C(C)(C)C(=O)O)cc1)C2=O [Example 3D, 2-[4-(4-amino-2-methoxy-5-oxo-7,8-dihydropyrido[4,3-d]pyrimidin-6(5H)-yl)phenyl]-2-methylpropanoic acid] | 46.2
25 | COc1nc(N)c2c(n1)CCN(c1ccc(C(C)(C)c3nc(C)no3)cc1)C2=O [Example 3F, 4-amino-2-methoxy-6-{4-[1-methyl-1-(3-methyl-1,2,4-oxadiazol-5-yl)ethyl]phenyl}-7,8-dihydropyrido[4,3-d]pyrimidin-5(6H)-one] | 51.5
